Measurements published in ChEMBL document CHEMBL5465560, “Selectivity Literature for EUbOPEN Chemogenomic Library” (2024).
Each block holds one molecule with its values, some of them ahead of it.

Columns and labels:
[1] = target: T1, cAMP-dependent protein kinase catalytic subunit PRKX (Homo sapiens) (UniProt P51817); assay: Selectivity interaction (Kinase panel (Z-LYTE Assay)) EUB0001632a PRKX; settings: at 10 µM
T1 sequence (whole entry): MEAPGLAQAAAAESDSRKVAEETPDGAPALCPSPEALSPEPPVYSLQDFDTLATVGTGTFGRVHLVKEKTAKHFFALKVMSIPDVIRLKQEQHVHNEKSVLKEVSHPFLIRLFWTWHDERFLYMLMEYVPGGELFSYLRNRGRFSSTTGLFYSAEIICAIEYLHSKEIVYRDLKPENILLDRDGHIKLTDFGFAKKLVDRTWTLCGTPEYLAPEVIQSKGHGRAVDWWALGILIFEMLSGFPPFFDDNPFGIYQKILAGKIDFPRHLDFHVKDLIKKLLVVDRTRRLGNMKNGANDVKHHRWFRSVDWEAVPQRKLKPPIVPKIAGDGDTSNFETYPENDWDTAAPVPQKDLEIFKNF

[2] = target: T2, Inhibitor of nuclear factor kappa-B kinase subunit beta (Homo sapiens) (UniProt O14920); assay: Selectivity interaction (ActivX KiNativ screen (kinase selectivity in THP-1 cell lysates)) EUB0000639a IKBKB; assay type: subcellular; settings: lysate, at 1 µM
T2 sequence (whole entry): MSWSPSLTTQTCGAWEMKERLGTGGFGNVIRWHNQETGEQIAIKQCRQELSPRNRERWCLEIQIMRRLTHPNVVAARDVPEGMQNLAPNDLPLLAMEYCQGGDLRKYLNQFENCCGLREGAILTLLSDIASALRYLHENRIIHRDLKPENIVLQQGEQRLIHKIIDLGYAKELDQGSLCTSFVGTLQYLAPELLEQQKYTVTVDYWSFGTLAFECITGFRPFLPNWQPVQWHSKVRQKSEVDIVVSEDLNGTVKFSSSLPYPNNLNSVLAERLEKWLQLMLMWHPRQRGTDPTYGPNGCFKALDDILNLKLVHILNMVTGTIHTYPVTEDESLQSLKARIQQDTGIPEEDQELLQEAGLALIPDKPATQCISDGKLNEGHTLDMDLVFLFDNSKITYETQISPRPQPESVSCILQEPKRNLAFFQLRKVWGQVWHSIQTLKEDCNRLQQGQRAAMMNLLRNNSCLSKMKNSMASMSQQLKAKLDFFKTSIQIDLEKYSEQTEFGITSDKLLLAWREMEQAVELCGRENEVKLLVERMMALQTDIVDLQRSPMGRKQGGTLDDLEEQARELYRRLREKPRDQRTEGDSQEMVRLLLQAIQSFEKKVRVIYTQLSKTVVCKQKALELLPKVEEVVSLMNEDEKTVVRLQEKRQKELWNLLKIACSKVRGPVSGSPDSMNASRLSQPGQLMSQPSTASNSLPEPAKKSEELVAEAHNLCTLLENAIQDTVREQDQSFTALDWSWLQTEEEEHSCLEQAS

[3] = target: Ribosomal protein S6 kinase alpha-6 (Homo sapiens, UniProt Q9UK32); assay: Selectivity interaction (ProQinase) EUB0000171b RPS6KA6
Chain of Ribosomal protein S6 kinase alpha-6 (Q9UK32 whole entry): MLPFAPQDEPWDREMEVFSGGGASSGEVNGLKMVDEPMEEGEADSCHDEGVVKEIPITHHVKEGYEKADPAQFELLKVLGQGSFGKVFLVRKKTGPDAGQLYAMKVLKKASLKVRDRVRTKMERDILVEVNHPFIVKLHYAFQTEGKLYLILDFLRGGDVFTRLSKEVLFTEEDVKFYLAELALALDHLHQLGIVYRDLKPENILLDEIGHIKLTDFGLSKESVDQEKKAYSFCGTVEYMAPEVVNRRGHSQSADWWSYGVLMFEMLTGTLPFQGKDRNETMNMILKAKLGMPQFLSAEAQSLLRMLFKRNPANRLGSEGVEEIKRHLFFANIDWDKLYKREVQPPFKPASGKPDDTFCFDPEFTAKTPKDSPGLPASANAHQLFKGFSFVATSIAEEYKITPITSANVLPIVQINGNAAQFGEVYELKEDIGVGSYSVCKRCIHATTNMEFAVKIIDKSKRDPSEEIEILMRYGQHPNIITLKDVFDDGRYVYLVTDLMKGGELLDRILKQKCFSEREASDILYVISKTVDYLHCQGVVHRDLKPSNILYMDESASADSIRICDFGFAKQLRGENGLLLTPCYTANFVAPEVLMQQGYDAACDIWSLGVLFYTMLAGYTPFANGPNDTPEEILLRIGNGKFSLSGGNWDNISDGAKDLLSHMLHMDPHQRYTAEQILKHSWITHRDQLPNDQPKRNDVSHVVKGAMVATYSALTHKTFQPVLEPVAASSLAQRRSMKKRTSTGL

[4] = target: T3, Bone morphogenetic protein receptor type-2 (Homo sapiens) (UniProt Q13873); assay: Selectivity interaction (KinomeScan (DiscoverX)) EUB0000045b BMPR2
T3 sequence (whole entry): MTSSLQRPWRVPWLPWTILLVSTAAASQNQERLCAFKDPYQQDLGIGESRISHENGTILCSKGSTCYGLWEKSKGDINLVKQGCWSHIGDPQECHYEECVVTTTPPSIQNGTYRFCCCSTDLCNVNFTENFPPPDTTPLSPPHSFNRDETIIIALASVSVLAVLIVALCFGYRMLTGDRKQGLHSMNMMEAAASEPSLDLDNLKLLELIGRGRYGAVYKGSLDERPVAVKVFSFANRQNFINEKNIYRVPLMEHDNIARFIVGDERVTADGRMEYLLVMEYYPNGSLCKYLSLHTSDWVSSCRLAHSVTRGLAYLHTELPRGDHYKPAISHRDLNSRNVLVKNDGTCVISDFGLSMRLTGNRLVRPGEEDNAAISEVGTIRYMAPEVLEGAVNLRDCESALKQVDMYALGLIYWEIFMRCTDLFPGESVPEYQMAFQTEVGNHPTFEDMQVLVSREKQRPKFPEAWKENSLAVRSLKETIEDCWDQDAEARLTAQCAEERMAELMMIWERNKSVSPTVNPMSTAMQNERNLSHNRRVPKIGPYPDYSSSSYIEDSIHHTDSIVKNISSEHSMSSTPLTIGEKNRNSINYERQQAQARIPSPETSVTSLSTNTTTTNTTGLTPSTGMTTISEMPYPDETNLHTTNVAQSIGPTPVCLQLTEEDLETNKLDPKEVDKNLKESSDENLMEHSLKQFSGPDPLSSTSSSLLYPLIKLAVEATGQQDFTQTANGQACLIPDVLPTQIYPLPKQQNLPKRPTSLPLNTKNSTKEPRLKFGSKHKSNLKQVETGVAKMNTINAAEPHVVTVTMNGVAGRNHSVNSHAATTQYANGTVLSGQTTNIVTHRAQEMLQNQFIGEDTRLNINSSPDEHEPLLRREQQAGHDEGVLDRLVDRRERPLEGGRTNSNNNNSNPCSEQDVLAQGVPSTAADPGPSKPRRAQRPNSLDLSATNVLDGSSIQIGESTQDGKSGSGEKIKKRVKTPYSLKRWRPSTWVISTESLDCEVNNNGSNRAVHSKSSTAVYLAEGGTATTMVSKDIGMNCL

[5] = target: Microtubule-associated serine/threonine-protein kinase 1 (Homo sapiens) (UniProt Q9Y2H9); assay: Selectivity interaction (KinomeScan (DiscoverX)) EUB0000618a MAST1; settings: at 10 µM
Chain of Microtubule-associated serine/threonine-protein kinase 1 (Homo sapiens) (Q9Y2H9 whole entry, looked up): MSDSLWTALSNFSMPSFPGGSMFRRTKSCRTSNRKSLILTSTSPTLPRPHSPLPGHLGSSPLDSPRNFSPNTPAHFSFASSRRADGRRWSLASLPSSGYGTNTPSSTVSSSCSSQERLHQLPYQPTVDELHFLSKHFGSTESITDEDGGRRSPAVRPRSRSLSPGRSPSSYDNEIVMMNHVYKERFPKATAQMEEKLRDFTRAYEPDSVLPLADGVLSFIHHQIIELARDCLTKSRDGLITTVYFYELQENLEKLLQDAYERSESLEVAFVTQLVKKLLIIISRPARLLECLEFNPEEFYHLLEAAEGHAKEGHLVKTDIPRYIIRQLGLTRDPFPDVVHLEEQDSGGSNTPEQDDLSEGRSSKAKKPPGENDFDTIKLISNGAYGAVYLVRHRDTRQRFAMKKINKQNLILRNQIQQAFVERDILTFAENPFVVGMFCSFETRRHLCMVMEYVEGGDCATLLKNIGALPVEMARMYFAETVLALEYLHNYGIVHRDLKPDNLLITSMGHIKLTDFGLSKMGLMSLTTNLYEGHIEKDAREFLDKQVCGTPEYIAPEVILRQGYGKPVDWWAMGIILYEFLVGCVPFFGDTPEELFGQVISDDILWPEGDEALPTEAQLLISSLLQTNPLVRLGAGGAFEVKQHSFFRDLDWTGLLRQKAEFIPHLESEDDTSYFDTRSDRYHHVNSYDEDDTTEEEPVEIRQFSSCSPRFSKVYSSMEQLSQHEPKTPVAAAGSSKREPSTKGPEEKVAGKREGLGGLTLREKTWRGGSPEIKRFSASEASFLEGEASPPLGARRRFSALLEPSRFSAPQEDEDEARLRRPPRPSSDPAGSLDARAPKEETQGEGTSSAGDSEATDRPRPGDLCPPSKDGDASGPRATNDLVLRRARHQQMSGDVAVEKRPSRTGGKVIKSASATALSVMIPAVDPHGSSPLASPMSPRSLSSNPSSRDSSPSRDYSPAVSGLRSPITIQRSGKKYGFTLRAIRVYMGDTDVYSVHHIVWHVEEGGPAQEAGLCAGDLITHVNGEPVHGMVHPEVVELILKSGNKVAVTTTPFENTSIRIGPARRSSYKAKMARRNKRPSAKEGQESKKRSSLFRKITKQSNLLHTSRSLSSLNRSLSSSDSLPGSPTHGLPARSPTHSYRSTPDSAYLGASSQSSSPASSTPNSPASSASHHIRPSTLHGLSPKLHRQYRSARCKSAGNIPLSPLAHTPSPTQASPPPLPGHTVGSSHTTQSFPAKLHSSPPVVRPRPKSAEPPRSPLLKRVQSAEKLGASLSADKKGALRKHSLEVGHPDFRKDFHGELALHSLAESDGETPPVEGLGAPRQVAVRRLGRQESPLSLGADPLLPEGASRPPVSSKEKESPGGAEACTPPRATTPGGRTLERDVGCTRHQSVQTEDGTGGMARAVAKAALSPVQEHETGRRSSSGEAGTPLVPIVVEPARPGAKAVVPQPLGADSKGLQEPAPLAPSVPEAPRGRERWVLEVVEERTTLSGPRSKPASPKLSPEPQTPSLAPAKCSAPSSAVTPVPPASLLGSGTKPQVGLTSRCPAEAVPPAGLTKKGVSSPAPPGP

[6] = target: Serine/threonine-protein kinase pim-1 (Homo sapiens, UniProt P11309); assay: Selectivity interaction (KinomeScan (DiscoverX)) EUB0000618a PIM1; settings: at 10 µM
Chain of Serine/threonine-protein kinase pim-1 (P11309 whole entry, looked up): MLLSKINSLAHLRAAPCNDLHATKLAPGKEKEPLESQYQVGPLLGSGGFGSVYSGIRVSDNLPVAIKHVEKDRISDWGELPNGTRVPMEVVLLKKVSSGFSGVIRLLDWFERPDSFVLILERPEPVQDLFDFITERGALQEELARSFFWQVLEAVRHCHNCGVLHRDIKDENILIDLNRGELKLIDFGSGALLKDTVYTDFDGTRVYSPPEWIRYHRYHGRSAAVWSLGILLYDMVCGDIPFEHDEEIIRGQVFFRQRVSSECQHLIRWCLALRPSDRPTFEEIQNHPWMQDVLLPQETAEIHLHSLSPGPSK

% of control [1]: 2.85%
Structure (SMILES): Cn1cc(-n2cnc3c(NCc4nc5cc(Cl)c(Cl)cc5[nH]4)nc(N4CCOCC4)nc32)cn1

% of inhibition [2]: -6.6%
Structure (SMILES): CC[C@@H]1[C@H](F)C(=O)N[C@@H]1COc1nccc2cc(C(N)=O)c(OC)cc12 [ZIMLOVISERTIB]

% of control ([3]; at 1 µM): 88% | % of control ([3]; at 5 µM): 68%
Structure (SMILES): C=CC(=O)Nc1cccc(C(=O)Nc2ccc(Nc3cc(-c4[nH]c(SC)nc4C)ccn3)cc2)c1

Structure (SMILES): C=CC(=O)Nc1cc(-n2c(=O)ccc3cnc4ccc(-c5ccc(NS(C)(=O)=O)cc5)cc4c32)ccc1C
% of control ([4]; at 1 µM): 69% | % of control ([4]; at 10 µM): 50%

Structure (SMILES): O[C@H]1CC[C@H](Nc2ncc3nc(Nc4c(F)cc(F)cc4F)n([C@H]4CCOC4)c3n2)CC1
% of control [5]: 75% | % of control [6]: 100%
